Assay results from ChEMBL document CHEMBL1152728, “1-Amido-1-phenyl-3-piperidinylbutanes - CCR5 antagonists for the treatment of HIV. Part 1” (Bioorg Med Chem Lett, 2009).
The source made the active and inactive calls. The calls are words filed in the database; no cut-off is given here.

What was measured:
Liver microsomes = assay: Metabolic stability in human liver microsomes assessed as clearance measured per mg of protein; assay type: ADME, Microsome
[1] = target: Voltage-gated inwardly rectifying potassium channel KCNH2 (Homo sapiens, UniProt Q12809)
Description: Displacement of [3H]dofetilide from human ERG expressed in HEK293 cells

physchem [2] = details: buffer, pH 7.4
physchem [3] = assay: physchem
Description: Dissociation constant, pKa of the compound

hERG (KCNH2) = hERG (KCNH2) (Homo sapiens, UniProt Q12809); assay: in vitro; details: HEK293 cells that express human ERG, probe [3H]dofetilide
Description: Displacement of [3H]dofetilide from human ERG expressed in HEK293 cells at 300 nM

[4] = test system: Human immunodeficiency virus 1; details: Bal, PM1
[5] = test system: Human immunodeficiency virus 1; assay: microbe, parasite or virus in culture; details: Human immunodeficiency virus 1, Bal, PM1

Sequence of Voltage-gated inwardly rectifying potassium channel KCNH2 (Q12809 whole entry): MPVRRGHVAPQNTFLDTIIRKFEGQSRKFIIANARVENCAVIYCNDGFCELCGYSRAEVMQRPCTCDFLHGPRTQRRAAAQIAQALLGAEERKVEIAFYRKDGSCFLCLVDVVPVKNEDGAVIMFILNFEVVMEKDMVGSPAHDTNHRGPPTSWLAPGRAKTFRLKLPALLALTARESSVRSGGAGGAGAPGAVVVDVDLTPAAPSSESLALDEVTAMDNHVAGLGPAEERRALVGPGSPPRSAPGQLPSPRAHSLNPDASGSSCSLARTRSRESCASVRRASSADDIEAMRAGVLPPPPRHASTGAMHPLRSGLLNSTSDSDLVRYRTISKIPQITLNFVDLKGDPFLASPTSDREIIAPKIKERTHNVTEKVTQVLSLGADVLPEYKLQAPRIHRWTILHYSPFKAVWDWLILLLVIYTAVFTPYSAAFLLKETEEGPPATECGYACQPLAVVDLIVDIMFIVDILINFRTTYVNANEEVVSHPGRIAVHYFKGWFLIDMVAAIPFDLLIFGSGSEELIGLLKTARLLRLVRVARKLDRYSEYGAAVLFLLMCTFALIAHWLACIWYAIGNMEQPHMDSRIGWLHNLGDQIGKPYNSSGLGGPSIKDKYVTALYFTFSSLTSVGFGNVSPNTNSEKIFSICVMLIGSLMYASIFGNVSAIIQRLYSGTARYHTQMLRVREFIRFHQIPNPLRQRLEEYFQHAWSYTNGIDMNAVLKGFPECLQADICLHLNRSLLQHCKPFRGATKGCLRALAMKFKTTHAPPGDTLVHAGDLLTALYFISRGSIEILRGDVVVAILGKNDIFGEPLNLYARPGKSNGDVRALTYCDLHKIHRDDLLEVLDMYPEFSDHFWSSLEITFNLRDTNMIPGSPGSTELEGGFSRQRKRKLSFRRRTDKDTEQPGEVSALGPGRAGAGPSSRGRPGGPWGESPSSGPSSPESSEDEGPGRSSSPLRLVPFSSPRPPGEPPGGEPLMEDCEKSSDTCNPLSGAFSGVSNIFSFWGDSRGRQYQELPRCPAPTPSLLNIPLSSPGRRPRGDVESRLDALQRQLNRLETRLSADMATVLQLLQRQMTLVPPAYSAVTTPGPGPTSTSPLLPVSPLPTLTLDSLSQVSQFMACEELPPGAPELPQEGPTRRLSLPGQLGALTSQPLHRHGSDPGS
Sequence of hERG (KCNH2) (Q12809 whole entry): as above

Row | SMILES | Stability (Liver microsomes) [µL/min] | logD (physchem [2]) | IC90 [5] [nM] | other results
1 | CC(C[C@H](NC(=O)C1CCC1)c1ccccc1)N1CCC(n2cc(-c3ccccc3)[nH]c2=O)CC1 (some centres undefined) | 35 | 3.5 | – | IC50 [1]: 4.7 nM
2 | Cc1nnc(C(C)C)n1C1CCN(CC[C@H](NC(=O)C2CCC(F)(F)CC2)c2ccccc2)CC1 | < 8 | 1.7 | – | pKa (physchem [3]): 7.2; inhibition at 0.3 µM (hERG (KCNH2)): 0%; Activity [4]: inactive
3 | CC(C[C@H](NC(=O)C1CCC1)c1ccccc1)N1CCC(c2[nH]ncc2-c2ccncc2)CC1 (some centres undefined) | 38 | 2.4 | – | IC50 [1]: 117 nM
4 | Cc1nnc(C)n1C1CCN(C(C)C[C@H](NC(=O)C2CCC2)c2ccccc2)CC1 (some centres undefined) | < 7 | 1.2 | – | –
5 | Cc1nnc(C(C)C)n1[C@H]1C[C@H]2CC[C@@H](C1)N2CC[C@H](NC(=O)C1CCC(F)(F)CC1)c1ccccc1 [MARAVIROC] | 22 | 2 | 0.7 | pKa (physchem [3]): 7.7
6 | Cc1noc(C2CCN(C(C)C[C@H](NC(=O)C3CCC3)c3ccccc3)CC2)n1 (some centres undefined) | 56 | 2.1 | – | –
7 | CCN(C(=O)OCc1ccccc1)C1CCN(C(C)C[C@H](NC(=O)C2CCC2)c2ccccc2)CC1 (some centres undefined) | – | – | 0.322 | –
8 | Cc1nnc(C(C)C)n1C1CCN(C(C)C[C@H](NC(=O)C2CCC2)c2ccccc2)CC1 (some centres undefined) | < 7 | 1.9 | – | –
9 | CCN(C(=O)Cc1ccc(OC)cc1)[C@H]1C[C@H]2CC[C@@H](C1)N2CC[C@H](NC(=O)C1CCC1)c1ccccc1 | 183 | 2.9 | – | pKa (physchem [3]): 8.7
10 | CC(C)c1noc(C2CCN(C(C)C[C@H](NC(=O)C3CCC3)c3ccccc3)CC2)n1 (some centres undefined) | 204 | 3.2 | – | –
11 | CCN(C(=O)Oc1ccc(F)cc1)C1CCN(C(C)C[C@H](NC(=O)C2CCC2)c2ccccc2)CC1 (some centres undefined) | – | – | 61.4 | –
12 | CCN(C(=O)NCc1ccc(Cl)c(Cl)c1)C1CCN(C(C)C[C@H](NC(=O)C2CCC2)c2ccccc2)CC1 (some centres undefined) | – | – | 0.236 | –
13 | CCN(C(=O)c1ccc(F)cc1)C1CCN(C(C)C[C@H](NC(=O)C2CCC2)c2ccccc2)CC1 (some centres undefined) | – | – | 1630 | –
14 | Cc1nnc(C2CCN(C(C)C[C@H](NC(=O)C3CCC3)c3ccccc3)CC2)o1 (some centres undefined) | < 7 | 1.3 | – | –
15 | CC(C[C@H](NC(=O)C1CCC1)c1ccccc1)N1CCC(c2nnc(CN(C)C)o2)CC1 (some centres undefined) | < 7 | 1.1 | – | –
